Where two headings read alike, the source gives them in different places.
How the values were obtained:
LXR α LBD protein = LXR α LBD protein (Homo sapiens (Human), UniProt Q13133); test: LXR α radioligand binding assay (SPA, competition with [3H]TO901317); settings: read-out: LXRα Binding Ki
LXR β LBD protein = LXR β LBD protein (Homo sapiens (Human), UniProt P55055); test: biochemical; format: binding
[1] = molecular target: Gal4 DNA binding domain fused to the LBD of LXRα in HEK293 cells (Homo sapiens (Human), UniProt Q13133); test: LXR luciferase transcriptional reporter gene assay, agonist mode, LXRα; format: cell-based; settings: for EC50: read-out: Cell LXRα EC50
Chain of Gal4 DNA binding domain fused to the LBD of LXRα in HEK293 cells (Q13133 209-447): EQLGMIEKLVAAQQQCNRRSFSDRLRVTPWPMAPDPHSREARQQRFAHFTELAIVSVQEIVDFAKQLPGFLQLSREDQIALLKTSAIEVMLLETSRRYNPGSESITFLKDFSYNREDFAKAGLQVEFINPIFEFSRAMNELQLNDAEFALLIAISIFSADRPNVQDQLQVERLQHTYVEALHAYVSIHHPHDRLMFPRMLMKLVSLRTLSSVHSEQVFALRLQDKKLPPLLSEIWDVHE

[2] = molecular target: Gal4 DNA binding domain fused to the LBD of LXRβ in HEK293 cells (Homo sapiens (Human), UniProt P55055); test: cell-based
Chain of Gal4 DNA binding domain fused to the LBD of LXRβ in HEK293 cells (P55055 222-460 limits assumed): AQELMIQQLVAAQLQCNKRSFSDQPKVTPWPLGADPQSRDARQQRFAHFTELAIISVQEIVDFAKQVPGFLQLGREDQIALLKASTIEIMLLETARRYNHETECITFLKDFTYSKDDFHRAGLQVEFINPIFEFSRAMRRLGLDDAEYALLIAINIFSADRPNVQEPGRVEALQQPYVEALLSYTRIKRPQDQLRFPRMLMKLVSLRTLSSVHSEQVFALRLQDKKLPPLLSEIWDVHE

[3] = Biological Test Example 2, agonist mode
[4] = Biological Test Example 1, read-out: LXRβ Binding Ki

Chain of LXR β LBD protein (P55055 222-460 limits assumed): as above
Chain of LXR α LBD protein (Q13133 209-447): as the sequence (Q13133 209-447) above

| Structure (SMILES) | Ki (LXR α LBD protein) [nM] | Ki (LXR β LBD protein; read-out: LXRβ Binding Ki) [nM] | Cell LXRα efficacy [1] | EC50 [1] [nM] | Cell LXRβ efficacy [2] | EC50 [2] [nM] | Ki (LXR β LBD protein) [nM] | Cell LXRβ efficacy [2, 3] | EC50 ([1]; agonist mode) [nM] | Cell LXRβ efficacy ([2]; agonist mode) | Ki (LXR β LBD protein; [4]) [nM] | EC50 [1, 3] [nM] |
| --- | --- | --- | --- | --- | --- | --- | --- | --- | --- | --- | --- | --- |
| CC(C)[C@@H]1CN(c2ccc(F)c(S(C)(=O)=O)c2)CCN1c1nc2cnccc2s1 [7-58, (R)-2-(4-(4-fluoro-3-(methylsulfonyl)phenyl)-2-isopropylpiperazin-1-yl)thiazolo[4,5-c]pyridine] | 2960 | 509 | 6486 (31) % | 6490 | 1154 (31) % | 1150 | – | – | – | – | – | – |
| CS(=O)(=O)c1cccc(N2CCN(C[C@@H]3CCC(C(F)(F)F)OC3)[C@@H](c3ccc(F)cc3)C2)c1 (single isomer, unassigned) [49-12] | 1770 | – | 2637 (51) % | 2640 | – | 522 | 184 | 522 (25) % | – | – | – | – |
| Cc1cc(C#N)nc(N2CCN(c3ccc(F)c(S(C)(=O)=O)c3)C[C@H]2C(C)C)n1 [7-8, (R)-2-(4-(4-fluoro-3-(methylsulfonyl)phenyl)-2-isopropylpiperazin-1-yl)-6-methylpyrimidine-4-carbonitrile] | > 3330 | 1010 | 17317 (26) % | – | – | 1520 | – | – | 17300 | 1521 (21) % | – | – |
| CS(=O)(=O)c1cccc(N2CCN(CC3(F)CCN(CC(F)(F)F)CC3)[C@H](c3ccccc3)C2)c1 (single isomer, unassigned) [48-54] | > 3330 | – | – | – | – | > 20000 | – | – | – | – | 2390 | > 20000 |
| CO[C@@H](C)[C@@H]1CN(c2ccc(CO)c(S(C)(=O)=O)c2)CCN1c1ncc(CO)c(C(F)(F)F)n1 (single isomer, unassigned) [11-4] | 1890 | – | 3106 (30) % | – | – | 347 | 159 | – | 3110 | 347 (24) % | – | – |
| CC(C)[C@@H]1CN(c2ccc(F)c(S(C)(=O)=O)c2)CCN1c1cncc(C(F)(F)F)n1 [7-45, (R)-2-(4-(4-fluoro-3-(methylsulfonyl)phenyl)-2-isopropylpiperazin-1-yl)-6-(trifluoromethyl)pyrazine] | 115 | 12 | 377 (85) % | – | 136 (71) % | 136 | – | – | 377 | – | – | – |
| CC(C)[C@@H]1CN(c2ccc(F)c(S(C)(=O)=O)c2)CCN1c1ncc(C(O)C(F)(F)F)cn1 (stereo partly drawn) [Cpd No 41-1, 2,2,2-trifluoro-1-(2-((R)-4-(4-fluoro-3-(methylsulfonyl)phenyl)-2-isopropylpiperazin-1-yl)pyrimidin-5-yl)ethan-1-ol] | 1120 | 92 | 3334 (36) % | 3330 | 305 (19) % | 305 | – | – | – | – | – | – |
| CC(C)[C@H]1CN(c2cccc(S(C)(=O)=O)c2)CCN1CC1CCC(C(F)(F)F)N(C)C1 (stereo partly drawn) [Cpd No 52-1, (2S)-2-isopropyl-1-((1-methyl-6-(trifluoromethyl)piperidin-3-yl)methyl)-4-(3-(methylsulfonyl)phenyl)piperazine] | 144 | – | 137 (95) % | 137 | – | 46 | – | 46 (74) % | – | – | 19 | – |
| CC(C)[C@H]1CN(c2cccc(S(C)(=O)=O)c2)CCN1Cc1ccc(C(F)(F)F)nc1 [46-41, (S)-2-isopropyl-4-(3-(methylsulfonyl)phenyl)-1-((6-(trifluoromethyl)pyridin-3-yl)methyl)piperazine] | 1310 | 161 | 2425 (60) % | – | – | 559 | – | – | 2420 | 559 (68) % | – | – |
| CC(C)[C@H]1CN(c2ccc(CO)c(S(C)(=O)=O)c2)CCN1C[C@H]1CC[C@@H](C(F)(F)F)OC1 [Cpd No 49-1, (4-((S)-3-isopropyl-4-(((3R,6S)-6-(trifluoromethyl)tetrahydro-2H-pyran-3-yl)methyl)piperazin-1-yl)-2-(methylsulfonyl)phenyl)methanol] | 356 | 37 | 195 (64) % | 195 | 110 (94) % | 110 | – | – | – | – | – | – |
| NS(=O)(=O)c1cccc(N2CCN(CC3CCN(CC(F)(F)F)CC3)[C@@H](c3ccccc3)C2)c1 (single isomer, unassigned) [48-81] | 2300 | – | 1964 (37) % | – | – | 822 | – | 822 (9) % | – | – | 479 | 1960 |
| CC(C)[C@@H]1CN(c2ccc(C(N)=O)c(S(C)(=O)=O)c2Cl)CCN1c1nccc(C(F)(F)F)n1 [4-3, (R)-3-chloro-4-(3-isopropyl-4-(4-(trifluoromethyl)pyrimidin-2-yl)piperazin-1-yl)-2-(methylsulfonyl)benzamide] | > 3330 | > 2500 | – | > 20000 | – | 1680 | – | – | – | 1679 (12) % | – | – |
| CC[C@H](O)c1cnc(N2CCN(c3ccc(F)c(S(C)(=O)=O)c3)C[C@H]2C(C)C)nc1C(F)(F)F (single isomer, unassigned) [12-6] | 266 | 22 | 2429 (43) % | – | – | 289 | – | – | 2430 | 289 (29) % | – | – |
| CC(C)[C@H]1CN(c2ccc(CO)c(S(C)(=O)=O)c2)CCN1C[C@@H]1CC[C@H](C(F)(F)F)OC1 [Cpd No 49-4, (4-((S)-3-isopropyl-4-(((3S,6R)-6-(trifluoromethyl)tetrahydro-2H-pyran-3-yl)methyl)piperazin-1-yl)-2-(methylsulfonyl)phenyl)methanol] | 44 | 7 | 27 (80) % | 27 | 20 (101) % | 20 | – | – | – | – | – | – |
| CCN(CCOC)C(=O)c1cnc(N2CCN(c3ccc(F)c(S(C)(=O)=O)c3)C[C@H]2C(C)C)nc1C [17-30, (R)-N-ethyl-2-(4-(4-fluoro-3-(methylsulfonyl)phenyl)-2-isopropylpiperazin-1-yl)-N-(2-methoxyethyl)-4-methylpyrimidine-5-carboxamide] | > 3330 | – | – | – | – | > 20000 | 1800 | – | > 20000 | – | – | – |
| CS(=O)(=O)c1cc(N2CCN(C[C@H]3CC[C@@H](C(F)(F)F)CC3)[C@@H](c3ccccc3Cl)C2)ccc1C(N)=O (single isomer, unassigned) [Cpd No 4-8] | 443 | 80 | 782 (91) % | 782 | 545 (59) % | 545 | – | – | – | – | – | – |
| CC(C)[C@@H]1CN(c2ccc(-c3nc(C#N)cs3)c(S(C)(=O)=O)c2)CCN1c1ncc(CO)c(C(F)(F)F)n1 [Cpd No 11-12, (R)-2-(4-(4-(5-(hydroxymethyl)-4-(trifluoromethyl)pyrimidin-2-yl)-3-isopropylpiperazin-1-yl)-2-(methylsulfonyl)phenyl)thiazole-4-carbonitrile] | 194 | 8 | 488 (67) % | – | – | 41 | – | – | 488 | 41 (73) % | – | – |
| CCN(CCOC)C(=O)c1cnc(N2CCN(c3ccc(F)c(S(C)(=O)=O)c3)C[C@H]2C(C)C)nc1C(F)(F)F [17-14, (R)-N-ethyl-2-(4-(4-fluoro-3-(methylsulfonyl)phenyl)-2-isopropylpiperazin-1-yl)-N-(2-methoxyethyl)-4-(trifluoromethyl)pyrimidine-5-carboxamide] | 915 | 113 | – | – | – | > 20000 | – | – | > 20000 | – | – | – |
